As usually defined, the melting point is the temperature, or range, at which the solid turns liquid.

Melting point data for 92 compounds are collected here from the Bradley open melting point set (2014).

SMILES strings stand for the structures. Where “and” joins values, the source holds several entries; their conditions need not be identical. Equal values may be shown once.

`O=C(O)COc1ccccc1` [phenoxyacetic acid]: the melting point was found to be 100 °C.

`CCC#N` [ethyl_cyanide] yielded a melting point of -93 °C. With `N#CCc1ccc(Cl)cc1` [4-chlorobenzyl_cyanide] the figure was 31 °C. As for `O=C(O)c1cc(=O)[nH]c(=O)[nH]1` [orotic acid, anhydrous], the figure is 346 °C; as for `COC(=O)c1ccc(-c2cccc([N+](=O)[O-])c2)cc1` [methyl 3'-nitrobiphenyl-4-carboxylate], 143 °C.

`Cc1ncc(CO)c(CO)c1O` [Pyridoxine] displayed a melting point of 160 °C.

In turn, `CCn1cc(C(=O)O)c(=O)c2cc(F)c(N3CCNCC3)cc21` [norfloxacin] displayed a melting point of 220 °C. With `OB(O)c1ccccc1Br` [2-bromobenzeneboronic acid] the figure was 109 °C; with `COC(C)(C)OC` [2,2-Dimethoxypropane], -47 °C. As for `CN(C)c1ccc([N+](=O)[O-])cc1` [N,N-dimethyl-4-nitroaniline], the figure is 165 °C; as for `c1ccc2c(c1)ccc1ccccc12` [phenanthracene], 99 °C. As for `COC(=O)c1ccc(C#N)cc1` [methyl 4-cyanobenzoate], the melting point is 67 °C. The compound `O=C(O)c1nn(Cc2ccc(Cl)cc2Cl)c2ccccc12` [lonidamine] gave a melting point of 207 °C. Consider `BrCCCBr` [1,3-Dibromopropane], for which the melting point was -34 °C.

In the case of `O=C(O)CCCCCCC(=O)O` [suberic_acid], the melting point is 144 °C.

On to `COc1cc(C(=O)O)cc(OC)c1O` [syringic acid], for which the melting point stood at 207 °C. As for `COC(C)(C)C` [2-Methoxy-2-methylpropane], the figure is -109 °C; as for `O=C(O)c1ccc(C(=O)OC(=O)c2ccc(C(=O)O)cc2C(=O)O)c(C(=O)O)c1` [4,4'-(Oxydicarbonyl)diisophthalic acid], 165 °C; as for `O=C(O)C1(C(=O)O)CC1` [1,1-cyclopropanedicarboxylic acid], 132 °C. As for `c1ccc(CCc2ccccc2)cc1` [1,2-Diphenylethane], the melting point was found to be 51.5 °C. The compound `Oc1ccccc1Br` [2-bromophenol] gave a melting point of 5.6 °C.

`OCCNCCO` [diethanolamine] displayed a melting point of 29 °C.

Regarding `CNCCCC12CCC(c3ccccc31)c1ccccc12` [maprotiline], the melting point worked out at 92 °C. `O=C(c1ccccc1)c1cccs1` [Phenyl(2-thienyl)methanone] gave a melting point of 57 °C. As for `ClC(Cl)C(Cl)(Cl)Cl` [pentachloroethane], the figure is -29 °C; as for `CCCCC(=O)O` [N-Valeric Acid], -34 °C; as for `Cc1ccc(-c2ccc(/C=C3\N=C(c4ccccc4)OC3=O)o2)cc1`, 150 °C. With `COC(OC)OC` [trimethyl orthoformate] the figure was -53 °C; with `BrC(Br)Br` [Bromoform], 9 °C; with `CCCCCCCCCCCCCCCCCCCC(=O)OC` [methyl eicosanoate], 48 °C. With `CC(=O)Nc1ccc(-c2ccc3nn(-c4ccccc4)nc3c2)cc1` [N-[4-(2-phenyl-2H-benzotriazol-5-yl)phenyl]acetamide] the figure was 173 °C; with `O=Cc1ccccc1Cl` [2-chlorobenzaldehyde], 10 °C; with `N#Cc1ccc(N=C=S)cc1` [4-cyanophenyl isothiocyanate], 120 °C. `C1=CCCC1` [cyclopentene] yielded a melting point of -135 °C.

Compound `Nc1cc(Cl)ccc1O` [5-chloro-2-hydroxyaniline] returned a melting point of 143 °C. With `O=C(O)c1ccc(C(=O)O)c(Br)c1` [2-bromoterephthalic acid] the figure was 299 °C; with `CCS(=O)(=O)CCn1c([N+](=O)[O-])cnc1C` [Tinidazole], 128 °C. For the compound `O=C(O)CCCc1ccc(F)cc1` [4-(4-fluorophenyl)butyric acid], the melting point is 45 °C.

As to `NC(c1ccccc1)c1ccccc1` [benzhydrylamine], the melting point turned out to be 12 °C. With `CCOC(=O)c1cccnc1` [ethyl nicotinate] the figure was 9 °C; with `Oc1ccc(I)cc1` [p-iodophenol], 94 °C; with `COc1ccc(N)c([N+](=O)[O-])c1` [4-methoxy-2-nitroaniline], 127 °C. With `Nc1ccc(/N=C/c2cccc([N+](=O)[O-])c2)cc1` [4-[(E)-(3-Nitrobenzylidene)amino]aniline] the figure was 148 °C; with `CCCCCC(=O)OC` [methyl hexanoate], -71 °C.

Take `N#Cc1ccccc1C#N` [phthalonitrile]: the melting point was 140 °C. With `C=C(C)CCC(=C)C` [2,5-dimethyl-1,5-hexadiene] the figure was -75 °C; with `CC(C)OC(=O)Nc1ccccc1` [isopropyl n-phenylcarbamate], 88 °C; with `C#CC1(O)CCC2C3CCc4cc(O)ccc4C3CCC21C` (configuration not stated) [17a-Ethynylestradiol], 141 °C. With `O=C(O)c1ccc(N2C(=O)C3ON=C(C(=O)c4ccc(Cl)cc4)C3C2=O)cc1` (configuration not stated) the figure was 144 °C; with `COC(=O)CCCCC(=O)OC` [dimethyl adipate], 8 °C.

As for `Cc1ccc(S(=O)(=O)Cl)cc1` [p-toluenesulfonyl chloride], the melting point worked out at 69 °C. In turn, `O=C(O)CCC(=O)C(=O)O` [2-oxopentanedioic acid] showed a melting point of 116 °C. With `CC(=O)C(=O)O` [pyruvic acid] the figure was 11.5 °C (2×) and 12 °C (2×) and 13.8 °C. As to `CCCC(C)(CO)CO` [2-methyl-2-propyl-1,3-propanediol], the melting point amounted to 55 °C. As for `CCCCCCCCCCCCCCCCO` [Hexadecan-1-ol], the figure is 50 °C; as for `NC(=S)c1ccccn1` [pyridine-2-thiocarboxamide], 123 °C; as for `O=C(O)CCCCCCCC(=O)O` [Azelaic Acid], 106 °C. As for `C/C=C\CC` [cis-2-pentene], the figure is -151 °C. With `O=[N+]([O-])c1ccc(/C=C/c2ccc(O)cc2)cc1` [4-hydroxy-4'-nitrostilbene] the figure was 207 °C; with `Cc1ccc2ncccc2c1[N+](=O)[O-]` [6-methyl-5-nitroquinoline], 117 °C; with `Nc1ccc(N=Nc2ccccc2)cc1` [4-(Phenyldiazenyl)aniline], 124 °C. The compound `[O-][n+]1ccc(OCc2ccccc2)cc1` [4-benzyloxypyridine n-oxide] yielded a melting point of 174 °C. With `C#CC1(O)CCC2C3CC=C4C=C(C(C)(C)C(=O)O)CCC4(C)C3CCC21C` (configuration not stated) the figure was 259 °C; with `C=CCC1(CC(C)C)C(=O)NC(=O)NC1=O` [butalbital], 138 °C. As to `CNC(=O)Oc1cccc2ccccc12` [carbaryl], the melting point stood at 142 °C. As for `CC1(C)C(=O)N(Cl)C(=O)N1Cl` [1,3-Dichloro-5,5-dimethylimidazolidine-2,4-dione], the figure is 135 °C; as for `CCOc1ccc(B(O)O)cn1` [6-ethoxypyridine-3-boronic acid], 103 °C. Turning to `Oc1cccc(Cl)c1Cl` [2,3-dichlorophenol], the melting point was 58 °C and 56 °C. Compound `O=[N+]([O-])c1c(Cl)c(Cl)cc(Cl)c1Cl` [2,3,5,6-tetrachloronitrobenzene] showed a melting point of 100 °C. In the case of `c1ccc(-c2csc(-c3ccccn3)n2)cc1` [4-phenyl-2-(2-pyridyl)thiazole], the melting point came to 57 °C. With `O=Cc1ccc([N+](=O)[O-])cc1` [4-nitrobenzaldehyde] the figure was 105 °C; with `NC(=O)NCc1ccccc1` [benzylurea], 149 °C; with `N#CCc1cccc(Br)c1` [m-bromophenylacetonitrile], 28 °C. Take `c1ccc(Nc2ccccc2)cc1` [Diphenylamine]: the melting point is 53 °C.

Compound `COC(=O)c1ccccc1OC(C)=O` [methyl_2-acetoxybenzoate] had a melting point of 52 °C. With `CCc1ccc(O)cc1` [4-Ethylphenol] the figure was 43.5 °C; with `[C-]#[N+]c1cnn(-c2ncnc3c2cnn3C)c1/C=C/OCC`, 155 °C. With `CCCCCCCCCCCCS` [1-dodecanethiol] the figure was -7 °C; with `O=c1cc(C(F)(F)F)c2ccc(O)cc2o1` [7-hydroxy-4-(trifluoromethyl)coumarin], 179 °C; with `CC(O)CO` (configuration not stated) [Propylene glycol], -60 °C. As for `O=C(CC(=O)C(F)(F)F)c1cccs1` [1-(2-thenoyl)-3,3,3-trifluoroacetone], the figure is 43 °C; as for `c1ccc(-c2ccc(-c3ccccc3)cc2)cc1` [1,1':4',1''-Terphenyl], 213 °C; as for `CCCCOC(=O)c1ccc(O)cc1` [Mekkings B], 72 °C. `OB(O)c1ccc(F)c(F)c1F` [2,3,4-trifluorobenzeneboronic acid]: the melting point came to 203 °C. With `O=[N+]([O-])c1ccc(Cl)c(Cl)c1Cl` [2,3,4-Trichloronitrobenzene] the figure was 55.5 °C. As for `CCc1cc(C(N)=S)ccn1` [Ethionamide], the figure is 163 °C. Take `N#Cc1ccc2c(c1)N(CCCN1CCC(O)CC1)c1ccccc1S2` [Propericiazine (JAN)]: the melting point is 82 °C. As for `CC1(C)OC(=O)C(=Cc2cccc([N+](=O)[O-])c2)C(=O)O1`, the figure is 177 °C. As for `C[C@]12CCC(=O)C=C1CC[C@@H]1[C@@H]2CC[C@]2(C)C(=O)CC[C@@]12O` [14-hydroxyandrost-4-ene-3,17-dione], the figure is 258 °C; as for `Nc1cc(Cl)c(O)c(Cl)c1` [4-Amino-2,6-dichlorophenol], 168 °C. As for `Sc1nc2ccccc2o1` [2-mercaptobenzoxazole], the figure is 192 °C. `CCCCC(=O)N(Cc1ccc(-c2ccccc2-c2nnn[nH]2)cc1)C(C(=O)O)C(C)C` (configuration not stated) gave a melting point of 116 °C.
